{"source": "patent US20060013804A1", "about": "“Modulation of stem cell differentiation by modulation of caspase-3 activity” (Ottawa Health Research Institute, priority 2002, published 2006)", "key": {"[1]": {"tested_on": "C2C12 myoblasts", "test": "C2C12 myoblast differentiation in low serum media with caspase inhibitors (MF20 staining, immunoblot of myogenic markers)", "format": "cell-based, mouse", "details": "20 μM inhibitor; for myotube formation: C2C12, low serum media, MF20 staining, up to 4 days; for myotube formation / myoblast fusion (mononucleated / fused cells): vs DMSO; for myoblast fusion (mononucleated / fused cells) / expression of MEF2C / accumulation of myogenin: C2C12, low serum; for myoblast fusion (mononucleated / fused cells): 4 days; for expression of MEF2C / accumulation of myogenin: Western blot; for expression of MEF2C: vs control; for accumulation of myogenin: vs control myoblasts", "experimental": "Myoblast culture. C2C12 cell (mouse skeletal muscle myoblast) cultures were grown and maintained in DMEM containing 10% FBS with 50 units/ml penicillin and 50 μg/ml streptomycin (Gibco). Differentiation was induced by incubating cultures in DMEM containing only a low serum concentration (2% horse serum). Caspase activity was measured using a Caspase-3 and Caspase-8 Fluorometric Assay Kit (Pharmingen). […] Control cells were treated with an equivalent amount of vehicle (DMSO). Primary myoblast cells were derived from skeletal muscles of the hind- and fore-limbs from 1-2 day old C57BL/6 wild-type, caspase-3 heterozygous and caspase-3 null mice (Frasch, S. C., et al., (1998) J. Biol. Chem. 273, 8389-8397; Kuida, K., et al., (1996) Nature 384, 368-372) (n=5 for each genotype) as described (Cregan, S. P. et al., (1999) J. Neuro. 19, 7860-7869.). To induce differentiation, primary myoblast cultures were incubated in DMEM containing 5% horse serum.\nProtein isolation, immunoblot analyses and immunocytochemistry. Cells from C2C12 and primary myoblast cultures were washed with ice-cold PBS and lysed on ice for 45 minutes in modified-RIPA buffer containing 20 mM NaF, 5 mM Na3VO4 and 10 μg/ml each of aprotinin, leupeptin, pepstatin and PMSF. Total protein was measured using the BCA protein assay (Pierce). Immunoblot analyses were performed as described (Creasy, C. L., & Chernoff, J. (1995) J. Biol. Chem. 270, 21695-21700) using antibodies for MST1, MKK6, p38γ, and p38α (Upstate), p38 and MEF2C (Cell Signaling Technologies), myogenin F5D and myosin heavy chain MF20 mAb (Developmental Hybridoma Bank), and active caspase-3 (Biovision).\nC2C12 myoblasts were fixed and stained with anti-MF20 as previously described (Cregan, et al., (1999) J. Neuro. 19, 7860-7869). Primary myoblast cultures were fixed in 4% paraformaldehyde, rinsed three times in PBS containing 0.01% Triton X-100 and stained as above. For both C2C12 and primary myoblast cultures, nuclei were detected by incubating cells for 10 min with 4,6-diamidino-2-phenylindole diluted 1:10000 in PBS.\nCells were fixed after 0, 2 and 4 days of differentiation and stained with the myosin heavy chain antibody MF20. […] In contrast, differentiation was more evident in cells that were incubated with caspase-8 inhibitor, z-LETD.fmk (FIG. 2B bottom panel, C)."}, "[2]": {"tested_on": "ASK1", "test": "Immunoprecipitation/kinase assay of ASK1 from neurospheres", "format": "cell-based, mouse", "details": "differentiation media, vs DMSO", "experimental": "Immunoprecipitation/Kinase activity assays: Immunoprecipitation/kinase analyses were performed as previously described (Fernando, P., et al., (2002) Proc Natl Acad Sci USA 99, 11025-11030). Cellular lysates from neurospheres were generated as described above. Antibodies against apoptotic signal-regulating kinase 1 (ASK1) (Upstate, USA), p21 activated kinase 1 (PAK1) (Cell Signaling Technologies, USA), and p38 MAPK (Santa Cruz, USA) were used to immunoprecipitate respective proteins. Samples were mixed with Protein G-sepharose beads for 1 h, washed and then mixed with kinase assay buffer containing myelin basic protein (MBP) and γ-32P[ATP]. Samples were reacted at 30° C. for 30 min and separated using SDS-PAGE. In some instances, samples were transferred to PVDF membrane following electrophoresis. To quantify kinase activities, MBP acrylamide bands were excised and solubilized in scintillation fluid prior to 32P-liquid scintillation analyses. In all cases, an activated recombinant mitogen activated protein kinase activated protein-2 (MAPKAP kinase-2) (Upstate, USA) was used as an internal control for liquid scintillation analyses.\nCaspase 3, when processed to its active form, is capable of targeting and activating many protein kinases that mediate cellular differentiation. […]"}}, "data": [{"smiles": "COC(=O)CC[C@H](NC(=O)[C@H](CC(=O)OC)NC(=O)OCc1ccccc1)C(=O)N[C@H](C(=O)N[C@@H](CC(=O)OC)C(=O)CF)C(C)C", "note": "[z-DEVD.fmk]", "values": [{"measurement": "myotube formation", "setting": "[1]", "result": "impaired formation of myotubes"}, {"measurement": "myotube formation", "setting": "[1]; listed as Z-DEVD.fmk", "result": "drastically attenuated"}, {"measurement": "myoblast fusion (mononucleated / fused cells)", "setting": "[1]", "result": "remained mononucleated and unfused after 4 days"}, {"measurement": "myoblast fusion (mononucleated / fused cells)", "setting": "[1]; listed as Z-DEVD.fmk", "result": "lack fusion capacity"}, {"measurement": "expression of MEF2C", "setting": "[1]", "result": "virtually absent"}, {"measurement": "accumulation of myogenin", "setting": "[1]", "result": "delayed and attenuated accumulation"}, {"measurement": "accumulation of myogenin", "setting": "[1]; listed as Z-DEVD.fmk", "result": "delayed and is in lower abundance"}, {"measurement": "expression of MEF2C", "setting": "[1]; listed as Z-DEVD.fmk", "result": "low levels of MEF2C relative to control cells"}, {"measurement": "ASK1 kinase activity", "setting": "[2]; listed as DEVD", "result": "decrease"}, {"measurement": "ASK1 kinase activity", "setting": "[2]; listed as z-DEVD", "result": "reduced"}]}]}
